Data reported in patent US12304901B2, “Selective ligands for tau aggregates” (Sentonix, Inc., priority 2022, dated 2025).
Where two headings read alike, the source gives them in different places.

What was measured:
[1] = Mouse intravenous (IV) pharmacokinetic study of plasma and brain exposure with bioanalysis; assay type: in vivo; details: for Kp / half-life: male, NMRI, iv, 1 mg/kg; for Kp: brain/plasma
Method: A pharmacokinetic study of plasma and brain exposure in mice after IV administration of Example Compound 1 or Comparative Example Compound 1 was carried out following the protocol described in Loryan, I., et al, Pharm Res (2014) 31: 2203-2219. Comparative Example Compound 1 is 2-{2-Fluoro-6-[4-(hydroxymethyl)piperidin-1-yl]pyridin-3-yl}-1H-indol-5-ol, and has the following structure:
The experimental protocol and bioanalysis described in Loryan, I., et al, Pharm Res (2014) 31: 2203-2219 was followed to measure mouse plasma and brain exposure. Table 3 below provides specific details of the mice, sampling, dose, formulation, method and additional information regarding the experiment, and Table 4 below provides further information regarding the sampling in the experiment.

[2] = molecular target: recombinant 0N4R Tau fibrils (Homo sapiens (Human), UniProt P10636); experiment: 3H-THK5117 competition binding to tau fibrils in vitro; details: competition with 3 nM [3H]-THK5117, 0N4R tau fibrils, 1 h, 22° C.; average if run more than once
Method: ^3H-THK5117 Competition Binding to Tau Fibrils In Vitro
Preparation of recombinant 0N4R Tau fibrils was performed as previously described in Morozova, O. A., Biochemistry (2013), Vol., 52(40), pages 6960-6967. Competition binding experiments to 0N4R Tau fibrils were performed by incubating increasing concentrations [10^−10-10^−6 M] of the Example compounds of the invention, or the known tau specific ligand PBB3 (PBB3 was synthesized as previously described in M. Maruyama, et al, Neuron 2013, 79, 1094-1108) or MK6240 (Novandi Chemistry AB), in the presence of 3 nM of the known tau ligand [^3H]-THK5117 (Novandi Chemistry) and 0.2 mM 0N4R tau fibrils in binding buffer (50 mM Tris-HCl, pH 7.4, 0.1% BSA) for 1 h in the dark, and at 22° C. The incubation was terminated by filtration through a Whatman GF/B glass filter (Whatman International, Kent, UK) using a Brandel cell harvester. The filter was then washed rapidly four times with 3 mL of ice-cold wash buffer (5 mM Tris-HCl, 0.25 mM NaCl, 5% EtOH), and equilibrated for 1 h in scintillation vials containing 5 mL of Ultima Gold scintillation fluid before being analysed using a Liquid Scintillation Analyzer.
The results are shown in Table 2 in the column labeled “Tau IC50”. […] Biological Assay Results

[3] = cited from earlier work
[4] = mouse, mouse, IV 1 mg/kg, read-out: Total concentration brain:plasma ratio
[5] = mouse, mouse, IV 1 mg/kg, read-out: Unbound concentration brain:plasma ratio
[6] = mouse, mouse, IV 1 mg/kg, read-out: unbound AUC in brain as % of the plasma AUC
[7] = brain, mouse NMRI male, IV 1 mg/kg, mean n=3
[8] = plasma, mouse NMRI male, IV 1 mg/kg, mean n=3

recombinant 0N4R Tau fibrils, sequence (P10636 other isoform, or with tags, fused parts or gaps): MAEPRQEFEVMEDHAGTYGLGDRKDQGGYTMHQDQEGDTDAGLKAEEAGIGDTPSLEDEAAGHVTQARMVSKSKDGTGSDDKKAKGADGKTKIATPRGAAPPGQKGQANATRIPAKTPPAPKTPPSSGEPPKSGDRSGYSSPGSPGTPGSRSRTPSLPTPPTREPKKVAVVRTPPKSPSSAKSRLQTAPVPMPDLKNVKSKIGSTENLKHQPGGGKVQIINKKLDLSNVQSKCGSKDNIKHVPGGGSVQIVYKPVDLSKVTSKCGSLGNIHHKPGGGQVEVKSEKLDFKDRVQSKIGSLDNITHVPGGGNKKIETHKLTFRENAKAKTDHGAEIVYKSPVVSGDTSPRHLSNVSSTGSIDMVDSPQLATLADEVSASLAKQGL

OCC1CCN(c2ccc(-c3cc4cc(O)ccc4[nH]3)c(F)n2)CC1 [Comparative Example Compound 1, 2-{2-Fluoro-6-[4-(hydroxymethyl)piperidin-1-yl]pyridin-3-yl}-1H-indol-5-ol, reference compound]
Total concentration AUC ([1]; brain, mouse, IV 1 mg/kg): 15 ng·h/g
Unbound concentration AUC ([1]; brain, mouse, IV 1 mg/kg): 0.030 ng·h/g
Kp [1, 4]: 0.1
Kp [1, 5]: 0.002
Kp [1, 6]: ~0.002
Total concentration AUC ([1]; plasma, mouse, IV 1 mg/kg): 151 ng·h/g
Unbound concentration AUC ([1]; plasma, mouse, IV 1 mg/kg): 14 ng·h/g

CO[C@H]1CCCN(c2ccc(-c3cc4cc(O)ccc4[nH]3)c(F)n2)C1 [Example Compound 1, 2-{2-Fluoro-6-[(3S)-3-methoxypiperidin-1-yl]pyridin-3-yl}-1H-indol-5-ol]
IC50 [2]: 1.7 nM
AUCinf [1, 7]: 457.8 ng·h/g
AUClast [1, 7]: 454.6 ng·h/g
Cmax [1, 7]: 1190 ng/g
Tmax [1, 7]: 1.8 min
Total concentration AUC ([1]; brain, mouse, IV 1 mg/kg): 457.8 ng·h/g
Unbound concentration AUC ([1]; brain, mouse, IV 1 mg/kg): 0.09 ng·h/g
half-life ([1]; mouse, brain, brain, following IV dosing, mouse, read-out: elimination half-life (converted)): ~18 min
half-life ([1]; mouse, brain, brain, mouse NMRI male, IV 1 mg/kg, mean n=3, read-out: t1/2 (converted)): 18 min
Kp [1, 4]: 1.7
Kp [1, 5]: 0.56
Kp [1, 6]: ~0.56
half-life ([1]; mouse, plasma, plasma, mouse NMRI male, IV 1 mg/kg, mean n=3, read-out: t1/2 (converted)): 24 min
adverse events in the mice during the study ([1]; mouse, IV 1 mg/kg): No adverse events were observed
AUC(0-inf) [1, 8]: 267 ng·h/mL
AUC(0-t) [1, 8]: 264 ng·h/mL
C0 [1, 8]: 884 ng/mL
Cmax [1, 8]: 782 ng/mL
MRT [1, 8]: 18 min
Tmax [1, 8]: 1.8 min
Vd [1, 8]: 1.2 L/kg
clearance [1, 8]: 62.4 mL/min/kg
Total concentration AUC ([1]; plasma, mouse, IV 1 mg/kg): 267.1 ng·h/g
Unbound concentration AUC ([1]; plasma, mouse, IV 1 mg/kg): 0.16 ng·h/g

CO[C@@H]1CCCN(c2ccc(-c3cc4cc(O)ccc4[nH]3)c(F)n2)C1 [Example Compound 2, 2-{2-Fluoro-6-[(3R)-3-methoxypiperidin-1-yl]pyridin-3-yl}-1H-indol-5-ol]
IC50 [2]: 31.8 nM

[11CH3]Nc1ccc(/C=C/C=C/c2nc3ccc(O)cc3s2)cn1 [^11C-PBB3]
radiochemical purity after exposure to fluorescent light ([3]; 1 min after exposure): 77%
radiochemical purity after exposure to fluorescent light ([3]; from 10 to 60 min after exposure): approximately 50%
